Measured values published in PubChem BioAssay (NCI).
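Method: 48-hour compound exposure of cells in 96-well plates, five concentrations, linear interpolation of endpoints. At the TGI there is no net growth.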

How the values were obtained:
Assay in all cases: growth of human tumour cells (NCI), 48 h
A549 NSCLC = system: A549 NSCLC
T-47D breast = system: T-47D breast
A498 renal = system: A498 renal
CCRF-CEM leukemia = system: CCRF-CEM leukemia
COLO 205 colon = system: COLO 205 colon
RPMI-8226 leukemia = system: RPMI-8226 leukemia
SNB-19 CNS = system: SNB-19 CNS
HOP-62 NSCLC = system: HOP-62 NSCLC
KM12 colon = system: KM12 colon
OVCAR-5 ovarian = system: OVCAR-5 ovarian
SK-MEL-2 melanoma = system: SK-MEL-2 melanoma
SK-MEL-5 melanoma = system: SK-MEL-5 melanoma
NCI-H23 lung = system: NCI-H23 lung
TK-10 renal = system: TK-10 renal
HCT-15 colon = system: HCT-15 colon
SR leukemia = system: SR leukemia
HOP-92 NSCLC = system: HOP-92 NSCLC
PC-3 prostate = system: PC-3 prostate
M14 melanoma = system: M14 melanoma
SK-OV-3 ovarian = system: SK-OV-3 ovarian
NCI/ADR-RES ovarian = system: NCI/ADR-RES ovarian
LOX IMVI melanoma = system: LOX IMVI melanoma
SNB-75 CNS = system: SNB-75 CNS
IGROV1 ovarian = system: IGROV1 ovarian
UACC-257 melanoma = system: UACC-257 melanoma
SF-295 CNS = system: SF-295 CNS
ACHN renal = system: ACHN renal
MALME-3M melanoma = system: MALME-3M melanoma
NCI-H460 lung = system: NCI-H460 lung
HL-60(TB) leukemia = system: HL-60(TB) leukemia
HS 578T breast = system: HS 578T breast
UACC-62 melanoma = system: UACC-62 melanoma
NCI-H226 lung = system: NCI-H226 lung
OVCAR-8 ovarian = system: OVCAR-8 ovarian
HCT-116 colon = system: HCT-116 colon
MCF7 breast = system: MCF7 breast
CAKI-1 renal = system: CAKI-1 renal
U251 CNS = system: U251 CNS
BT-549 breast = system: BT-549 breast
MDA-MB-231 breast = system: MDA-MB-231 breast
NCI-H522 lung = system: NCI-H522 lung
SF-539 CNS = system: SF-539 CNS
OVCAR-3 ovarian = system: OVCAR-3 ovarian
MDA-MB-435 = system: MDA-MB-435
OVCAR-4 ovarian = system: OVCAR-4 ovarian
SF-268 CNS = system: SF-268 CNS
MOLT-4 leukemia = system: MOLT-4 leukemia
SW-620 colon = system: SW-620 colon
K-562 leukemia = system: K-562 leukemia
DU-145 prostate = system: DU-145 prostate
786-0 renal = system: 786-0 renal
UO-31 renal = system: UO-31 renal
HT29 colon = system: HT29 colon
EKVX NSCLC = system: EKVX NSCLC
SK-MEL-28 melanoma = system: SK-MEL-28 melanoma
SN12C renal = system: SN12C renal
HCC-2998 colon = system: HCC-2998 colon

With Cc1cc(C)n(C(=CC(=O)C(Cl)Cl)n2nc(C)cc2C)n1 the TGI (A549 NSCLC) was 67 µM, the TGI (T-47D breast) was 28.6 µM and the TGI (A498 renal) was over 100 µM. The TGI (CCRF-CEM leukemia) was 4.46 µM, the TGI (COLO 205 colon) was 40 µM and the TGI (RPMI-8226 leukemia) was 3.69 µM. It also gave a TGI (SNB-19 CNS) of 41.3 µM, a TGI (HOP-62 NSCLC) of 17.5 µM and a TGI (KM12 colon) of 24 µM. It also gave a TGI (OVCAR-5 ovarian) of 14.5 µM, a TGI (SK-MEL-2 melanoma) of 25.7 µM and a TGI (SK-MEL-5 melanoma) of 20.3 µM. For the same compound, the TGI (NCI-H23 lung) was 13.2 µM, the TGI (TK-10 renal) was 15.1 µM and the TGI (HCT-15 colon) was 10.7 µM. It also gave a TGI (SR leukemia) of 5.69 µM, a TGI (HOP-92 NSCLC) of 24.2 µM and a TGI (PC-3 prostate) of 29.5 µM. It also gave a TGI (M14 melanoma) of 13.3 µM, a TGI (SK-OV-3 ovarian) of over 100 µM and a TGI (NCI/ADR-RES ovarian) of 10.7 µM. It also gave a TGI (LOX IMVI melanoma) of 3.67 µM, a TGI (SNB-75 CNS) of over 100 µM and a TGI (IGROV1 ovarian) of 30.4 µM. The TGI (UACC-257 melanoma) was 4.97 µM, the TGI (SF-295 CNS) was 31.7 µM and the TGI (ACHN renal) was 22.3 µM. The TGI (MALME-3M melanoma) was 15.7 µM, the TGI (NCI-H460 lung) was 34.1 µM and the TGI (HL-60(TB) leukemia) was 18.1 µM. For the same compound, the TGI (HS 578T breast) was over 100 µM, the TGI (UACC-62 melanoma) was 7.84 µM and the TGI (NCI-H226 lung) was 2.56 µM. The TGI (OVCAR-8 ovarian) was 21.3 µM, the TGI (HCT-116 colon) was 6.81 µM and the TGI (MCF7 breast) was over 100 µM. It also gave a TGI (CAKI-1 renal) of 19.1 µM, a TGI (U251 CNS) of 20.4 µM and a TGI (BT-549 breast) of 16.1 µM. For the same compound, the TGI (MDA-MB-231 breast) was 12.3 µM, the TGI (NCI-H522 lung) was 7.76 µM and the TGI (SF-539 CNS) was 14.1 µM. For the same compound, the TGI (OVCAR-3 ovarian) was 16.1 µM, the TGI (MDA-MB-435) was 11 µM and the TGI (OVCAR-4 ovarian) was over 100 µM. It also gave a TGI (SF-268 CNS) of over 100 µM, a TGI (MOLT-4 leukemia) of 0.806 µM and a TGI (SW-620 colon) of 40.6 µM. It also gave a TGI (K-562 leukemia) of 7.42 µM, a TGI (DU-145 prostate) of 23 µM and a TGI (786-0 renal) of 10 µM. It also gave a TGI (UO-31 renal) of 27.6 µM.
CC1(O)CC23CC(O)C4(O)C(CC(O)C4(C)C)C(C)(O)C2CCC1C3O (stereo not given) gave a TGI (A549 NSCLC) of over 100 µM, a TGI (T-47D breast) of over 100 µM and a TGI (A498 renal) of over 100 µM. It also gave a TGI (CCRF-CEM leukemia) of over 100 µM, a TGI (COLO 205 colon) of over 100 µM and a TGI (SNB-19 CNS) of over 100 µM. The TGI (KM12 colon) was over 100 µM, the TGI (OVCAR-5 ovarian) was over 100 µM and the TGI (SK-MEL-2 melanoma) was over 100 µM. The TGI (SK-MEL-5 melanoma) was over 100 µM, the TGI (NCI-H23 lung) was over 100 µM and the TGI (TK-10 renal) was over 100 µM. It also gave a TGI (HCT-15 colon) of over 100 µM, a TGI (SR leukemia) of over 100 µM and a TGI (HOP-92 NSCLC) of over 100 µM. The TGI (HT29 colon) was over 100 µM, the TGI (PC-3 prostate) was over 100 µM and the TGI (M14 melanoma) was over 100 µM. It also gave a TGI (SK-OV-3 ovarian) of over 100 µM, a TGI (EKVX NSCLC) of over 100 µM and a TGI (NCI/ADR-RES ovarian) of over 100 µM. The TGI (LOX IMVI melanoma) was over 100 µM, the TGI (SK-MEL-28 melanoma) was over 100 µM and the TGI (SN12C renal) was over 100 µM. It also gave a TGI (IGROV1 ovarian) of over 100 µM, a TGI (UACC-257 melanoma) of over 100 µM and a TGI (SF-295 CNS) of over 100 µM. It also gave a TGI (ACHN renal) of over 100 µM, a TGI (MALME-3M melanoma) of over 100 µM and a TGI (NCI-H460 lung) of over 100 µM. The TGI (HL-60(TB) leukemia) was over 100 µM, the TGI (HCC-2998 colon) was over 100 µM and the TGI (HS 578T breast) was over 100 µM. The TGI (UACC-62 melanoma) was over 100 µM, the TGI (NCI-H226 lung) was over 100 µM and the TGI (OVCAR-8 ovarian) was over 100 µM. For the same compound, the TGI (HCT-116 colon) was over 100 µM, the TGI (MCF7 breast) was over 100 µM and the TGI (CAKI-1 renal) was over 100 µM. The TGI (U251 CNS) was over 100 µM, the TGI (BT-549 breast) was over 100 µM and the TGI (MDA-MB-231 breast) was over 100 µM. The TGI (NCI-H522 lung) was over 100 µM, the TGI (SF-539 CNS) was over 100 µM and the TGI (MDA-MB-435) was over 100 µM. For the same compound, the TGI (OVCAR-4 ovarian) was over 100 µM, the TGI (SF-268 CNS) was over 100 µM and the TGI (MOLT-4 leukemia) was over 100 µM. It also gave a TGI (SW-620 colon) of over 100 µM, a TGI (K-562 leukemia) of over 100 µM and a TGI (DU-145 prostate) of over 100 µM. For the same compound, the TGI (786-0 renal) was over 100 µM and the TGI (UO-31 renal) was over 100 µM.
